# Active and inactive are the calls of the source. How the calls were made is not given here.
# Tested on: rodent lifetime carcinogenesis bioassay, tumor incidence TD50
# Assay: carcinogenic potency in animals, long-term in vivo studies, CPDB compilation (AID 1745844)
smiles,measurement,setting,value
O=C(O)O,TD50,"mouse, strain B6C3F1, males, in drinking water, site: liver, lesion: hepatocellular adenoma, dosed 52 weeks, study length 52 weeks",1330 mg/kg/day (inactive)
same,TD50,"rat, strain F344/DuCrj, males, in feed, site: urinary bladder, lesion: carcinoma, dosed 104 weeks, study length 104 weeks",5350 mg/kg/day (inactive)
same,TD50,"rat, strain Wistar-random, females, in feed, site: urinary bladder, lesion: several types, types named in the paper, dosed 130 weeks, study length 130 weeks",12800 mg/kg/day
same,TD50,"rat, strain Wistar-random, females, in feed, site: urinary bladder, lesion: transitional-cell carcinoma, dosed 130 weeks, study length 130 weeks",37100 mg/kg/day
same,TD50,"rat, strain Wistar-random, females, in feed, site: urinary bladder, lesion: transitional-cell papilloma, dosed 78 weeks, study length 78 weeks",8280 mg/kg/day
same,TD50,"rat, strain Wistar-random, females, in feed, site: urinary bladder, lesion: transitional-cell papilloma, dosed 130 weeks, study length 130 weeks",20700 mg/kg/day
same,TD50,"rat, strain Wistar-random, males, in feed, site: urinary bladder, lesion: several types, types named in the paper, dosed 78 weeks, study length 78 weeks",6400 mg/kg/day
same,TD50,"rat, strain Wistar-random, males, in feed, site: urinary bladder, lesion: several types, types named in the paper, dosed 121 weeks, study length 121 weeks",13200 mg/kg/day
same,TD50,"rat, strain Wistar-random, males, in feed, site: urinary bladder, lesion: transitional-cell carcinoma, dosed 78 weeks, study length 78 weeks",12900 mg/kg/day
same,TD50,"rat, strain Wistar-random, males, in feed, site: urinary bladder, lesion: transitional-cell carcinoma, dosed 121 weeks, study length 121 weeks",54400 mg/kg/day
same,TD50,"rat, strain Wistar-random, males, in feed, site: urinary bladder, lesion: transitional-cell papilloma, dosed 78 weeks, study length 78 weeks",13100 mg/kg/day
same,TD50,"rat, strain Wistar-random, males, in feed, site: urinary bladder, lesion: transitional-cell papilloma, dosed 121 weeks, study length 121 weeks",17800 mg/kg/day
CC(F)(Cl)Cl,TD50,"rat, strain Sprague-Dawley, males, inhaled, site: any site (literature study), lesion: several types, types named in the paper, dosed 105 weeks, study length 105 weeks",5790 mg/kg/day
same,TD50,"rat, strain Sprague-Dawley, males, inhaled, site: testis, lesion: interstitial-cell adenoma, dosed 105 weeks, study length 105 weeks",5260 mg/kg/day
CCOP(=O)=O.CCOP(=O)=O.CCOP(=O)=O.[Al+3],TD50,"rat, strain Charles River CD1, females, in feed, site: kidney/pelvis, lesion: several types, types named in the paper, dosed 104 weeks, study length 104 weeks",14600 mg/kg/day
same,TD50,"rat, strain Charles River CD1, females, in feed, site: kidney/pelvis, lesion: transitional-cell carcinoma, dosed 104 weeks, study length 104 weeks",17800 mg/kg/day
same,TD50,"rat, strain Charles River CD1, females, in feed, site: kidney/pelvis, lesion: transitional-cell papilloma, dosed 104 weeks, study length 104 weeks",80400 mg/kg/day
same,TD50,"rat, strain Charles River CD1, females, in feed, site: urinary bladder, lesion: adenosquamous carcinoma, dosed 104 weeks, study length 104 weeks",110000 mg/kg/day
same,TD50,"rat, strain Charles River CD1, females, in feed, site: urinary bladder, lesion: several types, types named in the paper, dosed 104 weeks, study length 104 weeks",17600 mg/kg/day
same,TD50,"rat, strain Charles River CD1, females, in feed, site: urinary bladder, lesion: transitional-cell carcinoma, dosed 104 weeks, study length 104 weeks",23900 mg/kg/day
same,TD50,"rat, strain Charles River CD1, females, in feed, site: urinary bladder, lesion: transitional-cell papilloma, dosed 104 weeks, study length 104 weeks",452000 mg/kg/day
same,TD50,"rat, strain Charles River CD1, males, in feed, site: kidney/pelvis, lesion: several types, types named in the paper, dosed 104 weeks, study length 104 weeks",36400 mg/kg/day
same,TD50,"rat, strain Charles River CD1, males, in feed, site: kidney/pelvis, lesion: transitional-cell papilloma, dosed 104 weeks, study length 104 weeks",31800 mg/kg/day
same,TD50,"rat, strain Charles River CD1, males, in feed, site: urinary bladder, lesion: several types, types named in the paper, dosed 104 weeks, study length 104 weeks",3660 mg/kg/day
same,TD50,"rat, strain Charles River CD1, males, in feed, site: urinary bladder, lesion: transitional-cell carcinoma, dosed 104 weeks, study length 104 weeks",5000 mg/kg/day
same,TD50,"rat, strain Charles River CD1, males, in feed, site: urinary bladder, lesion: transitional-cell papilloma, dosed 104 weeks, study length 104 weeks",17200 mg/kg/day
C[C@H](CCc1ccccc1)NC[C@H](O)c1ccc(O)c(C(N)=O)c1,carcinogen call,"rat, strain Sprague-Dawley, females, in feed, site: heart, lesion: endocardial sarcoma, dosed 104 weeks, study length 104 weeks",negative (inactive)
same,carcinogen call,"rat, strain Sprague-Dawley, males, in feed, site: heart, lesion: endocardial sarcoma, dosed 104 weeks, study length 104 weeks",negative (inactive)
CCCCCCCCCc1ccc(OCCO)cc1,TD50,"mouse, strain B6C3F1, females, in feed, site: liver, lesion: hepatocellular adenoma, dosed 104 weeks, study length 104 weeks",8670 mg/kg/day (inactive)
same,carcinogen call,"mouse, strain B6C3F1, females, in feed, site: liver, lesion: hepatocellular carcinoma, dosed 104 weeks, study length 104 weeks",negative (inactive)
same,carcinogen call,"rat, strain F344/DuCrj, females, in feed, site: liver, lesion: hepatocellular adenoma, dosed 104 weeks, study length 104 weeks",negative (inactive)
same,carcinogen call,"rat, strain F344/DuCrj, females, in feed, site: liver, lesion: one or several types, types not named, dosed 52 weeks, study length 52 weeks",negative (inactive)
O=CNNc1nc(-c2ccco2)cs1,carcinogen call,"rat, strain Sprague-Dawley, females, in feed, site: any site (literature study), lesion: several types, types named in the paper, dosed 46 weeks, study length 64 weeks",negative (inactive)
NNCCO,TD50,"hamster, strain Syrian Golden, females, in drinking water, site: liver, lesion: hepatoma, dosed 84 weeks, study length 84 weeks",148 mg/kg/day (inactive)
same,TD50,"hamster, strain Syrian Golden, males, in drinking water, site: liver, lesion: hepatoma, dosed 84 weeks, study length 84 weeks",84.4 mg/kg/day (inactive)
same,TD50,"mouse, strain B6AKF1, females, oral dosing, site: any site (literature study), lesion: several types, types named in the paper, dosed 78 weeks, study length 78 weeks",5.34 mg/kg/day
same,TD50,"mouse, strain B6AKF1, males, oral dosing, site: any site (literature study), lesion: several types, types named in the paper, dosed 78 weeks, study length 78 weeks",0.404 mg/kg/day
same,TD50,"mouse, strain B6AKF1, males, oral dosing, site: liver, lesion: hepatoma, dosed 78 weeks, study length 78 weeks",0.314 mg/kg/day
same,TD50,"mouse, strain B6C3F1, females, oral dosing, site: any site (literature study), lesion: several types, types named in the paper, dosed 78 weeks, study length 78 weeks",4.77 mg/kg/day
same,TD50,"mouse, strain B6C3F1, females, oral dosing, site: liver, lesion: hepatoma, dosed 78 weeks, study length 78 weeks",4.77 mg/kg/day
same,TD50,"mouse, strain B6C3F1, females, oral dosing, site: lung, lesion: adenoma, dosed 78 weeks, study length 78 weeks",4.77 mg/kg/day
same,TD50,"mouse, strain B6C3F1, males, oral dosing, site: any site (literature study), lesion: several types, types named in the paper, dosed 78 weeks, study length 78 weeks",0.713 mg/kg/day
same,TD50,"mouse, strain B6C3F1, males, oral dosing, site: liver, lesion: hepatoma, dosed 78 weeks, study length 78 weeks",0.541 mg/kg/day
same,carcinogen call,"mouse, strain Swiss, females, in drinking water, site: lung, lesion: one or several types, types not named, dosed 75 weeks, study length 75 weeks",negative (inactive)
same,carcinogen call,"mouse, strain Swiss, males, in drinking water, site: liver, lesion: several types, types named in the paper, dosed 75 weeks, study length 75 weeks",negative (inactive)
same,carcinogen call,"mouse, strain Swiss, males, in drinking water, site: lung, lesion: one or several types, types not named, dosed 75 weeks, study length 75 weeks",negative (inactive)
O=CCCCC=O,TD50,"mouse, strain B6C3F1, females, inhaled, site: any site (literature study), lesion: several types, types named in the paper, dosed 104 weeks, study length 105 weeks",3.08 mg/kg/day (inactive)
same,carcinogen call,"mouse, strain B6C3F1, females, inhaled, site: liver, lesion: one or several types, types not named, dosed 52 weeks, study length 52 weeks",negative (inactive)
same,carcinogen call,"mouse, strain B6C3F1, females, inhaled, site: liver, lesion: one or several types, types not named, dosed 78 weeks, study length 78 weeks",negative (inactive)
same,TD50,"mouse, strain B6C3F1, females, inhaled, site: lung, lesion: adenocarcinoma, dosed 52 weeks, study length 52 weeks",0.54 mg/kg/day (inactive)
same,TD50,"mouse, strain B6C3F1, females, inhaled, site: lung, lesion: adenocarcinoma, dosed 78 weeks, study length 78 weeks",0.347 mg/kg/day (inactive)
same,TD50,"mouse, strain B6C3F1, females, inhaled, site: lung, lesion: alveolar/bronchiolar adenoma + alveolar/bronchiolar carcinoma, dosed 104 weeks, study length 105 weeks",17.4 mg/kg/day
same,carcinogen call,"mouse, strain B6C3F1, males, inhaled, site: any site (literature study), lesion: several types, types named in the paper, dosed 104 weeks, study length 104 weeks",negative (inactive)
same,carcinogen call,"mouse, strain B6C3F1, males, inhaled, site: liver, lesion: hepatocellular carcinoma, dosed 52 weeks, study length 52 weeks",negative (inactive)
same,carcinogen call,"mouse, strain B6C3F1, males, inhaled, site: liver, lesion: hepatocellular carcinoma, dosed 78 weeks, study length 78 weeks",negative (inactive)
same,carcinogen call,"mouse, strain B6C3F1, males, inhaled, site: lung, lesion: adenocarcinoma, dosed 52 weeks, study length 52 weeks",negative (inactive)
same,TD50,"mouse, strain B6C3F1, males, inhaled, site: lung, lesion: adenocarcinoma, dosed 78 weeks, study length 78 weeks",1.14 mg/kg/day (inactive)
same,TD50,"rat, strain Fischer 344, females, inhaled, site: any site (literature study), lesion: several types, types named in the paper, dosed 104 weeks, study length 104 weeks",0.125 mg/kg/day (inactive)
same,TD50,"rat, strain Fischer 344, males, inhaled, site: any site (literature study), lesion: several types, types named in the paper, dosed 104 weeks, study length 104 weeks",0.239 mg/kg/day (inactive)
COC(=O)[C@H]1[C@H]2C[C@@H]3c4[nH]c5ccccc5c4CCN3C[C@H]2C[C@@H](OC(=O)c2cc(OC)c(OC)c(OC)c2)[C@@H]1OC,TD50,"rat, strain Wistar, both sexes, in feed, site: several sites, sites named in the paper, lesion: several types, types named in the paper, dosed 78 weeks, study length 78 weeks",1.28 mg/kg/day (inactive)
CC1CN(N=O)C(=O)NC1=O (stereo not given),carcinogen call,"rat, strain MRC-Wistar, females, in drinking water, site: any site (literature study), lesion: several types, types named in the paper, dosed 52 weeks, study length 127 weeks",negative (inactive)
same,TD50,"rat, strain MRC-Wistar, females, in drinking water, site: liver, lesion: several types, types named in the paper, dosed 52 weeks, study length 127 weeks",31.2 mg/kg/day
same,carcinogen call,"rat, strain MRC-Wistar, males, in drinking water, site: any site (literature study), lesion: several types, types named in the paper, dosed 52 weeks, study length 127 weeks",negative (inactive)
same,carcinogen call,"rat, strain MRC-Wistar, males, in drinking water, site: liver, lesion: one or several types, types not named, dosed 52 weeks, study length 127 weeks",negative (inactive)
NC(=O)c1ccccc1C(N)=O,carcinogen call,"mouse, strain B6C3F1, females, in feed, site: any site (literature study), lesion: several types, types named in the paper, dosed 103 weeks, study length 103 weeks",negative (inactive)
same,TD50,"mouse, strain B6C3F1, males, in feed, site: any site (literature study), lesion: several types, types named in the paper, dosed 105 weeks, study length 105 weeks",1.1e+06 mg/kg/day (inactive)
same,TD50,"mouse, strain B6C3F1, males, in feed, site: lung, lesion: alveolar/bronchiolar adenoma + alveolar/bronchiolar carcinoma, dosed 105 weeks, study length 105 weeks",35800 mg/kg/day
same,TD50,"rat, strain Fischer 344, females, in feed, site: any site (literature study), lesion: several types, types named in the paper, dosed 106 weeks, study length 106 weeks",722 mg/kg/day (inactive)
same,TD50,"rat, strain Fischer 344, females, in feed, site: liver, lesion: hepatocellular adenoma + hepatocellular carcinoma + neoplastic nodule, dosed 106 weeks, study length 106 weeks",5390 mg/kg/day
same,carcinogen call,"rat, strain Fischer 344, males, in feed, site: any site (literature study), lesion: several types, types named in the paper, dosed 106 weeks, study length 106 weeks",negative (inactive)
same,TD50,"rat, strain Fischer 344, males, in feed, site: liver, lesion: hepatocellular adenoma + hepatocellular carcinoma + neoplastic nodule, dosed 106 weeks, study length 106 weeks",16600 mg/kg/day
CN(C)C(=O)Cl,TD50,"hamster, strain Syrian Golden, males, inhaled, site: nasal cavity, lesion: squamous-cell carcinoma, dosed 112 weeks, study length 112 weeks",0.625 mg/kg/day
same,TD50,"mouse, strain Ha/ICR, females, i.p., site: abdomen, lesion: sarcoma, dosed 64 weeks, study length 64 weeks",5.37 mg/kg/day
same,TD50,"mouse, strain Ha/ICR, females, i.p., site: abdomen, lesion: several types, types named in the paper, dosed 64 weeks, study length 64 weeks",4.59 mg/kg/day
same,TD50,"mouse, strain Ha/ICR, females, i.p., site: lung, lesion: papillary tumor, dosed 64 weeks, study length 64 weeks",6.65 mg/kg/day

# Reference: PubChem BioAssay AID1745844 (Carcinogenic Potency Database (CPDB), 2022)
